Data from patent publication US20200181117A1, “SUBSTITUTED 3-HETEROARYLOXY-1H-PYRAZOLES AND SALTS THEREOF AND THEIR USE AS HERBICIDAL ACTIVE SUBSTANCES” (BAYER CROPSCIENCE AKTIENGESELLSCHAFT, priority 2017, published 2020).

How the values were obtained:
Assay type in all cases: in vivo
Abutilon theophrasti [1] = assay: Post-emergence herbicidal action; settings: 1280 g/ha, rated visually after about 3 weeks vs untreated controls
How it was run: (§1)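 Visual rating against untreated plants, about 3 weeks post-treatment, on a 0-100% scale where 100% means plant death. Treatment: 1280 g/ha of WP/EC preparations with 0.5% additive in 600 l/ha water, sprayed on one-leaf-stage weeds grown in greenhouse sandy loam.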

Alopecurus myosuroides [2] = assay: Post-emergence herbicidal action; settings: 1280 g/ha, rated visually after about 3 weeks vs untreated controls
How it was run: as §1

Amaranthus retroflexus [3] = assay: Post-emergence herbicidal action; settings: 1280 g/ha, rated visually after about 3 weeks vs untreated controls
How it was run: as §1

Polygonum convolvulus [4] = assay: Post-emergence herbicidal action; settings: 1280 g/ha, rated visually after about 3 weeks vs untreated controls
How it was run: as §1

Stellaria media [5] = assay: Post-emergence herbicidal action; settings: 1280 g/ha, rated visually after about 3 weeks vs untreated controls
How it was run: as §1

Viola tricolor [6] = assay: Post-emergence herbicidal action; settings: 1280 g/ha, rated visually after about 3 weeks vs untreated controls
How it was run: as §1

Abutilon theophrasti [7] = assay: Pre-emergence herbicidal action; settings: 1280 g/ha, scored visually after about 3 weeks vs untreated controls
How it was run: (§2)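 Sow seeds in pots, cover with soil. Spray compound (WP or EC, 0.5% additive, 600 l/ha water) onto soil surface at 1280 g/ha. Keep in greenhouse under good growth conditions; score visually at about 3 weeks as % effect versus untreated pots.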

Alopecurus myosuroides [8] = assay: Pre-emergence herbicidal action; settings: 1280 g/ha, scored visually after about 3 weeks vs untreated controls
How it was run: as §2

Amaranthus retroflexus [9] = assay: Pre-emergence herbicidal action; settings: 1280 g/ha, scored visually after about 3 weeks vs untreated controls
How it was run: as §2

Avena fatua = assay: Pre-emergence herbicidal action; settings: 1280 g/ha, scored visually after about 3 weeks vs untreated controls
How it was run: as §2

Echinochloa crus-galli [10] = assay: Pre-emergence herbicidal action; settings: 1280 g/ha, scored visually after about 3 weeks vs untreated controls
How it was run: as §2

Hordeum murinum = assay: Pre-emergence herbicidal action; settings: 1280 g/ha, scored visually after about 3 weeks vs untreated controls
How it was run: as §2

Lolium rigidum [11] = assay: Pre-emergence herbicidal action; settings: 1280 g/ha, scored visually after about 3 weeks vs untreated controls
How it was run: as §2

Matricaria inodora = assay: Pre-emergence herbicidal action; settings: 1280 g/ha, scored visually after about 3 weeks vs untreated controls
How it was run: as §2

Pharbitis purpurea [12] = assay: Pre-emergence herbicidal action; settings: 1280 g/ha, scored visually after about 3 weeks vs untreated controls
How it was run: as §2

Polygonum convolvulus [13] = assay: Pre-emergence herbicidal action; settings: 1280 g/ha, scored visually after about 3 weeks vs untreated controls
How it was run: as §2

Setaria viridis [14] = assay: Pre-emergence herbicidal action; settings: 1280 g/ha, scored visually after about 3 weeks vs untreated controls
How it was run: as §2

Stellaria media [15] = assay: Pre-emergence herbicidal action; settings: 1280 g/ha, scored visually after about 3 weeks vs untreated controls
How it was run: as §2

Viola tricolor [16] = assay: Pre-emergence herbicidal action; settings: 1280 g/ha, scored visually after about 3 weeks vs untreated controls
How it was run: as §2

Echinochloa crus-galli [17] = assay: Post-emergence herbicidal action; settings: 1280 g/ha, rated visually after about 3 weeks vs untreated controls
How it was run: as §1

Pharbitis purpurea [18] = assay: Post-emergence herbicidal action; settings: 1280 g/ha, rated visually after about 3 weeks vs untreated controls
How it was run: as §1

Setaria viridis [19] = assay: Post-emergence herbicidal action; settings: 1280 g/ha, rated visually after about 3 weeks vs untreated controls
How it was run: as §1

Veronica persica = assay: Pre-emergence herbicidal action; settings: 1280 g/ha, scored visually after about 3 weeks vs untreated controls
How it was run: as §2

Lolium rigidum [20] = assay: Post-emergence herbicidal action; settings: 1280 g/ha, rated visually after about 3 weeks vs untreated controls
How it was run: as §1

Ipomoea purpurea = assay: Post-emergence herbicidal action; settings: 1280 g/ha, rated visually after about 3 weeks vs untreated controls
How it was run: as §1

Compound	herbicidal activity on Abutilon theophrasti (Abutilon theophrasti [1]) [%]	herbicidal activity on Alopecurus myosuroides (Alopecurus myosuroides [2]) [%]	herbicidal activity on Amaranthus retroflexus (Amaranthus retroflexus [3]) [%]	herbicidal activity on Polygonum convolvulus (Polygonum convolvulus [4]) [%]	herbicidal activity on Viola tricolor (Viola tricolor [6]) [%]	herbicidal activity on Abutilon theophrasti (Abutilon theophrasti [7]) [%]	herbicidal activity on Alopecurus myosuroides (Alopecurus myosuroides [8]) [%]	herbicidal activity on Amaranthus retroflexus (Amaranthus retroflexus [9]) [%]	herbicidal activity on Avena fatua (Avena fatua) [%]	herbicidal activity on Echinochloa crus-galli (Echinochloa crus-galli [10]) [%]	herbicidal activity on Hordeum murinum (Hordeum murinum) [%]	herbicidal activity on Lolium rigidum (Lolium rigidum [11]) [%]	herbicidal activity on Matricaria inodora (Matricaria inodora) [%]	herbicidal activity on Pharbitis purpurea (Pharbitis purpurea [12]) [%]	herbicidal activity on Polygonum convolvulus (Polygonum convolvulus [13]) [%]	herbicidal activity on Setaria viridis (Setaria viridis [14]) [%]	herbicidal activity on Stellaria media (Stellaria media [15]) [%]	herbicidal activity on Viola tricolor (Viola tricolor [16]) [%]	herbicidal activity on Setaria viridis (Setaria viridis [19]) [%]	herbicidal activity on Veronica persica (Veronica persica) [%]	other results
CCc1c(Sc2ccc(F)c(F)c2)c(Oc2ncccn2)nn1C [Example I-062]	100	80	100	90	100	100	100	100	80	100	100	80	100	80	100	100	100	100	–	–	herbicidal activity on Stellaria media (Stellaria media [5]): 90%
Fc1ccc(Sc2c(Oc3ncccn3)nn3c2CCC3)cc1 [Example I-097]	90	90	80	–	80	100	100	90	80	100	90	–	100	90	100	100	100	100	90	90	herbicidal activity on Echinochloa crus-galli (Echinochloa crus-galli [17]): 100%; herbicidal activity on Pharbitis purpurea (Pharbitis purpurea [18]): 90%
CCn1cc(Sc2ccc(F)cc2)c(Oc2ncccn2)n1 [Example I-038]	–	–	–	–	90	80	80	100	–	80	–	–	90	80	80	100	100	100	–	–	–
COc1cnc(Oc2nn(C)c(C)c2Sc2ccc(F)c(F)c2)nc1 [Example I-157]	90	100	100	80	100	100	100	100	100	100	100	100	100	–	100	100	100	100	80	100	herbicidal activity on Echinochloa crus-galli (Echinochloa crus-galli [17]): 100%; herbicidal activity on Lolium rigidum (Lolium rigidum [20]): 80%
CCn1cc(Sc2ccc(F)cc2)c(Oc2ncc(F)cn2)n1 [Example I-211]	–	–	–	100	80	90	90	100	–	90	–	100	90	80	90	100	100	100	90	100	herbicidal activity on Stellaria media (Stellaria media [5]): 100%
CCc1c(Sc2ccc(F)cc2)c(Oc2ncc(OC)cn2)nn1C [Example I-186]	–	–	100	–	100	–	–	100	–	–	–	–	90	–	80	100	100	100	–	–	herbicidal activity on Ipomoea purpurea (Ipomoea purpurea): 80%; herbicidal activity on Pharbitis purpurea (Pharbitis purpurea [18]): 80%
COc1cnc(Oc2nn(C)c(C)c2Sc2ccc(F)cc2F)nc1 [Example I-205]	90	–	90	–	90	100	100	100	100	100	100	100	100	100	100	100	100	100	80	100	–
CCc1c(Sc2ccc(F)cc2F)c(Oc2ncc(F)cn2)nn1C [Example I-094]	90	–	100	90	100	100	100	100	–	100	100	80	100	100	90	100	100	100	–	100	herbicidal activity on Echinochloa crus-galli (Echinochloa crus-galli [17]): 80%; herbicidal activity on Pharbitis purpurea (Pharbitis purpurea [18]): 100%; herbicidal activity on Stellaria media (Stellaria media [5]): 100%
